Where two headings read alike, the source gives them in different places.
Key:
Bevacizumab [1] = target: T1, Bevacizumab (Homo sapiens, UniProt P01857); test: Microtiter plate chromatography of resins, Bevacizumab whole IgG (bound, yield, selectivity); assay type: binding, humanized
T1 construct: fused on or other part: humanised anti-VEGF-A VH domain N-terminal of the gamma-1 constant region (engineered, no UniProt entry)

Bevacizumab [2] = test: as above; assay type: binding, humanized
Tocilizumab = test: Microtiter plate chromatography of resins, Tocilizumab (bound, yield); assay type: binding, humanized
Bevacizumab Fab fragment = test: Microtiter plate chromatography of resins, Bevacizumab Fab fragment (bound); assay type: binding, humanized; conditions: Bevacizumab Fab fragment
Description: (§1) Resins were assessed in packed mode by microtiter plate chromatography. For each column, approximately 30 μl of resin were transferred to a 384-well filter plate and sealed with appropriate top frits.
(§2) Columns were equilibrated with 6.7 column volumes (cv) of phosphate buffered saline (0.15 M NaCl, 20 mM sodium phosphate, pH 7.3; PBS) prior to injection. Either 3.3 cv of whole IgGs dissolved at 0.75 mg ml^−1, Fab or Fc fragments dissolved at 0.25 mg ml^−1 (all three in PBS) or host cell proteins (HCP) were injected onto columns. Antibody fragments of Bevacizumab (Fab and Fc) were prepared by cleavage of whole IgG with papain protease (3) according to the protocol of the manufacturer. […] Volumes transferred were spun through columns at 50 g for 1-2 min. During injection of samples, acceleration was reduced to 10 g and centrifugation time increased to 5-10 min. Effluent fractions were collected in 384-well plates and concentrations of protein analyzed by Bradford assay. Protein masses mi, mft and me (see below) were calculated as the product of fraction volume and measured protein concentration.
(§3) The fraction of ‘bound’ protein was calculated as the difference between the total mass of protein injected mi and the mass of protein detected in the flowthrough mft, divided by the total mass of protein injected.
(§4) the fraction of ‘bound’ protein and the ‘yield’ of protein were calculated for each resin based on data for whole IgG-antibodies. In the case of Bevacizumab fragments and host cell proteins, only the fraction of ‘bound’ protein is given. Selectivity of resins was calculated from data for Bevacizumab Whole IgG and host cell proteins. Due to limited experimental precision, selectivity was truncated beyond values of 10.

Bevacizumab Fc fragment = test: Microtiter plate chromatography of resins, Bevacizumab Fc fragment (bound); assay type: binding, humanized; conditions: Bevacizumab Fc fragment
Description: as §1, §2, §3, §4

host cell proteins (HCP) = test: Microtiter plate chromatography of resins, host cell proteins (bound); assay type: binding, CHO
Palivizumab = test: Microtiter plate chromatography of resins, Palivizumab (bound, yield); assay type: binding, humanized
[3] = system: human poly-IgG (h-poly-IgG); test: Microtiter plate chromatography of resins, human poly-IgG (bound, yield); assay type: binding
[4] = fraction of whole IgG Bevacizumab bound to resin
[5] = mass of whole IgG Bevacizumab eluted / mass injected
[6] = fraction of injected whole IgG bound to resin
[7] = mass eluted / mass injected, whole IgG
[8] = fraction of injected protein bound to resin
[9] = fraction of injected host cell proteins bound to resin
[10] = bound Bevacizumab whole IgG / bound HCP, truncated beyond values of 10

Row | Compound | Bevacizumab IgG Bound (%) (Bevacizumab [1]; [4]) | Bevacizumab IgG Yield (%) (Bevacizumab [1]; [5]) | Selectivity (Bevacizumab [2]) | Tocilizumab Bound (%) (Tocilizumab) | Tocilizumab Yield (%) (Tocilizumab) | Bevacizumab Fab Bound (%) (Bevacizumab Fab fragment) | Bevacizumab Fc Bound (%) (Bevacizumab Fc fragment) | HCP Bound (%) (host cell proteins (HCP); host cell proteins) | Bevacizumab IgG Bound (%) (Bevacizumab [1]; [6]) | Bevacizumab IgG Yield (%) (Bevacizumab [1]; [7]) | Tocilizumab Bound (%) (Tocilizumab; [8]) | Tocilizumab Yield (%) (Tocilizumab; mass eluted / mass injected) | Palivizumab Bound (%) (Palivizumab; [8]) | Palivizumab Yield (%) (Palivizumab; mass eluted / mass injected) | h-poly-IgG Bound (%) [3, 8] [%] | h-poly-IgG Yield (%) ([3]; mass eluted / mass injected) | HCP Bound (%) (host cell proteins (HCP); [9]) | also measured
1 | COc1ccc(NC(=O)c2cc(-c3cc(Br)cs3)n(C)n2)cc1C(=O)NCCCN [Ligand L2, 5-[5-(4-Bromo-2-thienyl)-1-methylpyrazol-3-yl]carboxamido-2-methoxybenzoic acid N-(3-aminopropyl)amide] | 100 | 96 | 1.7 | 100 | 91 | 100 | 100 | 59 |  |  |  |  |  |  |  |  |  | 
2 | COc1ccc(NC(=O)c2n[nH]c3ccc(Cl)cc23)cc1C(=O)NCCCN [Ligand L4, 5-(5-Chloro-1H-indazol-3-yl)carboxamido-2-methoxybenzoic acid N-(3-aminopropyl)amide] | 100 | 98 | 1.8 | 100 | 93 | 38 | 100 | 57 |  |  |  |  |  |  |  |  |  | Palivizumab Bound (%) (Palivizumab): 100%; Palivizumab Yield (%) (Palivizumab): 97%; h-poly-IgG Bound (%) [3]: 100%; h-poly-IgG Yield (%) [3]: 83%
3 | COc1ccc(NC(=O)c2cncc(-c3cccs3)c2)cc1C(=O)NCCCN [Ligand L5, 2-Methoxy-5-[3-(2-thienyl)pyridin-5-yl]carboxamidobenzoic acid N-(3-aminopropyl)amide] | 100 | 96 | 2.0 | 100 | 80 | 77 | 84 | 48 |  |  |  |  |  |  |  |  |  | Palivizumab Bound (%) (Palivizumab): 71%; Palivizumab Yield (%) (Palivizumab): 72%; h-poly-IgG Bound (%) [3]: 97%; h-poly-IgG Yield (%) [3]: 69%
4 | COc1ccc(NC(=O)c2cc(-c3cccs3)n(C)n2)cc1C(=O)NCCCN [Ligand L6, 2-Methoxy-5-[1-methyl-5-(2-thienyl)pyrazol-3-yl]carboxamidobenzoic acid N-(3-aminopropyl)amide] | 100 | 100 | 2.0 | 100 | 102 | 79 | 100 | 54 |  |  |  |  |  |  |  |  |  | Palivizumab Bound (%) (Palivizumab): 98%; Palivizumab Yield (%) (Palivizumab): 100%; h-poly-IgG Bound (%) [3]: 94%; h-poly-IgG Yield (%) [3]: 100%
5 | NCCCNC(=O)c1cccc(C(=O)Nc2nc3ccccc3s2)c1 [Ligand L72, Isophthalic acid N-(3-aminopropyl)-N′-(benzothiazol-2-yl)amide] |  |  | 2.5 |  |  |  |  |  | 100 | 83 | 93 | 93 | 91 | 91 | 90 | 90 | 40 | 
6 | NCCCNC(=O)c1cccc(C(=O)Nc2nc(-c3ccccc3)cs2)c1 [Ligand L73, Isophthalic acid N-(3-aminopropyl)-N′-(4-phenylthiazol-2-yl)amide] |  |  | 1.9 |  |  |  |  |  | 100 | 92 | 97 | 95 | 87 | 87 | 92 | 87 | 52 | 
7 | NCCCNC(=O)c1cccc(C(=O)Nc2ncc(-c3ccccc3)s2)c1 [Ligand L74, Isophthalic acid N-(3-aminopropyl)-N′-(5-phenylthiazol-2-yl)amide] |  |  | 1.9 |  |  |  |  |  | 100 | 96 | 97 | 91 | 88 | 86 | 91 | 90 | 53 | 
8 | COc1ccc(NC(=O)c2cn3ccsc3n2)cc1C(=O)NCCCNC(=O)CCCCCN [Ligand L75, 5-(Imidazo[2,1-b]thiazol-6-ylcarboxamido)-2-methoxybenzoic acid [3-(6-aminohexanoylamido)-1-propyl]amide] |  |  | 5.7 |  |  |  |  |  | 100 | 97 | 100 | 98 | 91 | 91 | 90 | 90 | 18 | 
9 | COc1ccc(NC(=O)c2cn3ccsc3n2)cc1C(=O)NCCCCCC(=O)NCCOCCOCCN [Ligand L76, 6-[5-(Imidazo[2,1-b]thiazol-6-ylcarboxamido)-2-methoxyphenylcarboxamido]hexanoic acid (8-amino-3,6-dioxa-1-octyl)amide] |  |  |  |  |  |  |  |  | 100 | 98 | 93 | 89 | 59 | 59 | 73 | 73 | 9 | Selectivity (Bevacizumab [2]; [10]): 10.0
10 | COc1ccc(NC(=O)c2cn3ccsc3n2)cc1C(=O)NCCOCCOCC(=O)NCCCN [Ligand L77, 8-[5-(Imidazo-[2,1-b]thiazol-6-ylcarboxamido)-2-methoxyphenylcarboxamido]-3,6-dioxaoctanoic acid (3-amino-1-propyl)amide] |  |  |  |  |  |  |  |  | 100 | 96 | 80 | 80 | 55 | 55 | 65 | 65 | 10 | Selectivity (Bevacizumab [2]; [10]): 10.0
11 | COc1ccc(NC(=O)c2cn3ccsc3n2)cc1C(=O)NCCOCCOCC(=O)NCCCCCCN [Ligand L78, 8-[5-(Imidazo-[2,1-b]thiazol-6-ylcarboxamido)-2-methoxyphenylcarboxamido]-3,6-dioxaoctanoic acid (6-amino-1-hexyl)amide] |  |  | 7.4 |  |  |  |  |  | 100 | 94 | 94 | 94 | 61 | 61 | 76 | 76 | 14 | 

— patent publication US20130131321A1, “LIGANDS FOR ANTIBODY AND Fc-FUSION PROTEIN PURIFICATION BY AFFINITY CHROMATOGRAPHY” (GRAFFINITY PHARMACEUTICALS GMBH, priority 2010, published 2013)
